# Experimental data published in ChEMBL document CHEMBL1201862, “PubChem BioAssay data set” (2004).
#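 The compound was tested at five concentrations on cells cultured in 96-well plates, with a 48-hour exposure period. GI50 is the concentration that inhibits growth by half.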 The source made the active and inactive calls. No stated cut-off is given here; in the data, active = GI50 up to about 1.1 µM and inactive = higher.
# Key:
# Assay in all cases: DTP human tumour cell line panel, 48 h
# 786-0 = tested on: 786-0
# CAKI-1 = tested on: CAKI-1
# DU-145 = tested on: DU-145
# HCT-116 = tested on: HCT-116
# K562 = tested on: K562
# LOX IMVI = tested on: LOX IMVI
# MDA-N = tested on: MDA-N
# PC-3 = tested on: PC-3
# RPMI-8226 = tested on: RPMI-8226
# SF-268 = tested on: SF-268
# SF-295 = tested on: SF-295
# SNB-19 = tested on: SNB-19
# SNB-75 = tested on: SNB-75
# SR = tested on: SR
# TK-10 = tested on: TK-10
# U-251 = tested on: U-251
# UACC-62 = tested on: UACC-62
# NCI-H23 = tested on: NCI-H23
Structure (SMILES),GI50 (786-0),GI50 (CAKI-1),GI50 (DU-145),GI50 (HCT-116),GI50 (K562),GI50 (LOX IMVI),GI50 (MDA-N),GI50 (PC-3),GI50 (RPMI-8226),GI50 (SF-268),GI50 (SF-295),GI50 (SNB-19),GI50 (SNB-75),GI50 (SR),GI50 (TK-10),GI50 (U-251),GI50 (UACC-62),GI50 (NCI-H23)
O=C(O)C1CCCCC1c1c2ccc(=O)c(O)c-2oc2c(O)c(O)ccc12 (configuration not stated),19.3 µM (inactive),65.6 µM (inactive),52.1 µM (inactive),13.2 µM (inactive),17.9 µM (inactive),13.8 µM (inactive),17.2 µM (inactive),> 100 µM (inactive),29.9 µM (inactive),9.38 µM (inactive),23.7 µM (inactive),29.4 µM (inactive),28.3 µM (inactive),27.5 µM (inactive),> 100 µM (inactive),7.4 µM (inactive),23.6 µM (inactive),
CC(C)=Cc1cc(C)c2c(O)cc(C)c3c2c1C(C)=C(O)C3=O,25.8 µM (inactive),27 µM (inactive),28.7 µM (inactive),17.7 µM (inactive),13 µM (inactive),20.1 µM (inactive),33 µM (inactive),32.8 µM (inactive),0.0257 µM (active),21.1 µM (inactive),22.2 µM (inactive),47.4 µM (inactive),,35.3 µM (inactive),,32.7 µM (inactive),20.5 µM (inactive),23.4 µM (inactive)
CC(C)(C)c1ccc(/C=N/NC(=O)CSCC(=O)N/N=C/c2ccc(C(C)(C)C)cc2)cc1,1.95 µM (inactive),,5.83 µM (inactive),2.03 µM (inactive),2.55 µM (inactive),,,2.8 µM (inactive),2.77 µM (inactive),1.9 µM (inactive),,2.93 µM (inactive),5.32 µM (inactive),1.7 µM (inactive),5.21 µM (inactive),1.61 µM (inactive),16.4 µM (inactive),2.5 µM (inactive)
COc1ccc(/C=C/C(=O)c2cc(OC)cc(OC)c2)cc1,1.16 µM (inactive),2.59 µM (inactive),3.24 µM (inactive),1.22 µM (inactive),2.59 µM (inactive),1.35 µM (inactive),1.94 µM (inactive),6.12 µM (inactive),0.646 µM (active),5.4 µM (inactive),1.24 µM (inactive),1.69 µM (inactive),2.64 µM (inactive),0.371 µM (active),11.5 µM (inactive),1.24 µM (inactive),4.14 µM (inactive),2.58 µM (inactive)
CCOC(=O)c1c(SC(=O)C(C)(C)Oc2ccc(Cl)cc2)n(-c2ccccc2)c(=S)n(-c2ccccc2)c1=O,27.6 µM (inactive),> 100 µM (inactive),45.2 µM (inactive),22.4 µM (inactive),30.8 µM (inactive),31.8 µM (inactive),48.8 µM (inactive),,,20.2 µM (inactive),59.2 µM (inactive),31.6 µM (inactive),51.4 µM (inactive),23.9 µM (inactive),89.5 µM (inactive),19.6 µM (inactive),67.8 µM (inactive),61.7 µM (inactive)
CNc1cc(N)ccc1C(=O)N1CCC[C@H]1CO,> 100 µM (inactive),,> 100 µM (inactive),> 100 µM (inactive),> 100 µM (inactive),> 100 µM (inactive),> 100 µM (inactive),> 100 µM (inactive),> 100 µM (inactive),> 100 µM (inactive),> 100 µM (inactive),> 100 µM (inactive),> 100 µM (inactive),> 100 µM (inactive),> 100 µM (inactive),> 100 µM (inactive),> 100 µM (inactive),
